From US5840684A, “Glycopeptide antibiotic derivatives” (Eli Lilly and Company, priority 1995, dated 1998)
≈ marks a conversion by molar mass, not a printed value.

Legend:
[1] = tested on: Staphylococcus aureus S13E; type: cell-based
Protocol: (§1) The MIC's were determined using a standard broth micro-dilution assay.

[2] = tested on: Entercoccus faecium 180-1; assay: broth micro-dilution MIC; type: cell-based
Protocol: as §1

Entercoccus faecium 276 = assay: broth micro-dilution MIC; type: cell-based
Protocol: as §1

[3] = tested on: Staphylococcus aureus 446; assay: broth micro-dilution MIC; type: cell-based
Protocol: as §1

[4] = tested on: Staphylococcus aureus 447; assay: broth micro-dilution MIC; type: cell-based
Protocol: as §1

[5] = tested on: Staphylococcus aureus 489; assay: broth micro-dilution MIC; type: cell-based
Protocol: as §1

[6] = tested on: Staphylococcus aureus 491; assay: broth micro-dilution MIC; type: cell-based
Protocol: as §1

[7] = tested on: Staphylococcus aureus SA1199A; assay: broth micro-dilution MIC; type: cell-based
Protocol: as §1

[8] = tested on: Staphylococcus aureus SA1199; assay: broth micro-dilution MIC; type: cell-based
Protocol: as §1

[9] = tested on: Staphylococcus aureus X400; assay: broth micro-dilution MIC; type: cell-based
Protocol: as §1

[10] = tested on: Staphylococcus aureus X778; assay: broth micro-dilution MIC; type: cell-based
Protocol: as §1

[11] = tested on: Streptococcus pyogenes C203; assay: broth micro-dilution MIC; type: cell-based
Protocol: as §1

Entercoccus faecium 180 = assay: broth micro-dilution MIC; type: cell-based; settings: Entercoccus faecium 180
Protocol: (§2) The formula I compounds have in vitro and in vivo activity against Gram-positive pathogenic bacteria. The MIC's were determined using a standard broth micro-dilution assay.

Entercoccus faecium 2041 = assay: broth micro-dilution MIC; type: cell-based; settings: Entercoccus faecium 2041
Protocol: as §2

[12] = tested on: Enterococcus gallinarum 245; assay: broth micro-dilution MIC; type: cell-based; settings: Enterococcus gallinarum 245
Protocol: as §2

[13] = tested on: Staphylococcus haemolyticus 105; assay: broth micro-dilution MIC; type: cell-based
Protocol: as §2

[14] = tested on: Staphylococcus haemolyticus 415; assay: broth micro-dilution MIC; type: cell-based
Protocol: as §2

[15] = tested on: Streptococcus pneumoniae P1; assay: broth micro-dilution MIC; type: cell-based
Protocol: as §2

Stapylococcus aureus = assay: mouse protection, experimentally-induced infection; type: in vivo; settings: mice infected with Stapylococcus aureus, two doses
Streptococcus pyogenes = assay: mouse protection, experimentally-induced infection; type: in vivo; settings: mice infected with Streptococcus pyogenes, two doses
Streptococcus pneumoniae = assay: mouse protection, experimentally-induced infection; type: in vivo; settings: mice infected with Streptococcus pneumoniae, two doses
[16] = tested on: vancomycin-resistant enterococci; assay: broth micro-dilution, mean geometric MIC; type: cell-based, Enterococcus faecium and Enterococcus faecalis; settings: enterococci, 24-hour incubation
[17] = tested on: vancomycin-susceptible enterococci; assay: broth micro-dilution, mean geometric MIC; type: cell-based, Enterococcus faecium and Enterococcus faecalis; settings: enterococci, 24-hour incubation
Pediococcus acidilacti = assay: agar dilution MIC, lactic acid bacteria; type: cell-based; settings: Pediococcus acidilacti (mean of 10), brain-heart infusion agar
Pediococcus pentosaceus = assay: agar dilution MIC, lactic acid bacteria; type: cell-based; settings: Pediococcus pentosaceus (mean of 2), brain-heart infusion agar
Leuconostoc lactis = assay: agar dilution MIC, lactic acid bacteria; type: cell-based; settings: Leuconostoc lactis (mean of 2), brain-heart infusion agar
[18] = tested on: Leuconostoc pseudomesenteroides; assay: agar dilution MIC, lactic acid bacteria; type: cell-based; settings: brain-heart infusion agar
Leuconostoc citreum = assay: agar dilution MIC, lactic acid bacteria; type: cell-based; settings: brain-heart infusion agar
[19] = tested on: Staphylococcus aureus SA1199B; type: cell-based
Protocol: as §1

[20] = tested on: Staphylococcus epidermidis 270; assay: broth micro-dilution MIC; type: cell-based
Protocol: as §2

[21] = tested on: Leuconostoc mesenteroides; assay: agar dilution MIC, lactic acid bacteria; type: cell-based; settings: Leuconostoc mesenteroides (mean of 4), brain-heart infusion agar

With `CNC(CC(C)C)C(=O)NC1C(=O)NC(CC(N)=O)C(=O)NC2C(=O)NC3C(=O)NC(C(=O)NC(C(=O)O)c4cc(O)cc(O)c4-c4cc3ccc4O)C(OC3CC(C)(N)C(O)C(C)O3)c3ccc(c(Cl)c3)Oc3cc2cc(c3OC2OC(CO)C(O)C(O)C2OC2CC(C)(NCc3ccc4ccccc4c3)C(O)C(C)O2)Oc2ccc(cc2Cl)C1O` (stereo not drawn) [Compound 1] the MIC [1] was 0.125 µg/mL (≈ 0.0721 µM), the MIC [2] was ≤ 0.06 µg/mL and the MIC (Entercoccus faecium 276) was ≤ 0.06 µg/mL. The MIC [3] was ≤ 0.06 µg/mL, the MIC [4] was ≤ 0.06 µg/mL and the MIC [5] was ≤ 0.06 µg/mL. For the same compound, the MIC [6] was 2 µg/mL (≈ 1.15 µM), the MIC [7] was ≤ 0.06 µg/mL and the MIC [8] was ≤ 0.06 µg/mL. For the same compound, the MIC [9] was ≤ 0.06 µg/mL, the MIC [10] was 0.125 µg/mL (≈ 0.0721 µM) and the MIC [11] was ≤ 0.06 µg/mL. It also gave an MIC (Entercoccus faecium 180) of 0.5 µg/mL (≈ 0.289 µM), an MIC (Entercoccus faecium 2041) of 0.125 µg/mL (≈ 0.0721 µM) and an MIC [12] of 4 µg/mL (≈ 2.31 µM). For the same compound, the MIC [13] was 4 µg/mL (≈ 2.31 µM), the MIC [14] was 4 µg/mL (≈ 2.31 µM) and the MIC [15] was ≤ 0.06 µg/mL. It also gave an ED50 (Stapylococcus aureus) of 0.086 mg/kg/2, an ED50 (Streptococcus pyogenes) of 0.052 mg/kg/2 and an ED50 (Streptococcus pneumoniae) of 0.025 mg/kg/2. For the same compound, the “mean geometric MIC, Vancomycin Resistant Strains” value [16] was 0.25 µg/mL, the “mean geometric MIC, Vancomycin Sensitive Strains” value [17] was 0.0061 µg/mL and the MIC (Pediococcus acidilacti) was 18 µg/mL (≈ 10.4 µM). For the same compound, the MIC (Pediococcus pentosaceus) was 23 µg/mL (≈ 13.3 µM), the MIC (Leuconostoc lactis) was 23 µg/mL (≈ 13.3 µM) and the MIC [18] was > 128 µg/mL. The MIC (Leuconostoc citreum) was > 128 µg/mL.
With `CNC(CC(C)C)C(=O)NC1C(=O)NC(CC(N)=O)C(=O)NC2C(=O)NC3C(=O)NC(C(=O)NC(C(=O)O)c4cc(O)cc(O)c4-c4cc3ccc4O)C(OC3CC(C)(N)C(O)C(C)O3)c3ccc(c(Cl)c3)Oc3cc2cc(c3OC2OC(CO)C(O)C(O)C2OC2CC(C)(NCc3cc(OCc4ccccc4)ccc3OC)C(O)C(C)O2)Oc2ccc(cc2Cl)C1O` (stereo not drawn) [Compound 51] the MIC [1] was 0.5 µg/mL (≈ 0.275 µM), the MIC [19] was 1 µg/mL (≈ 0.55 µM) and the MIC [2] was ≤ 0.06 µg/mL. The MIC (Entercoccus faecium 276) was ≤ 0.06 µg/mL, the MIC [4] was 0.5 µg/mL (≈ 0.275 µM) and the MIC [5] was ≤ 0.06 µg/mL. The MIC [7] was ≤ 0.06 µg/mL, the MIC [8] was 0.5 µg/mL (≈ 0.275 µM) and the MIC [9] was ≤ 0.06 µg/mL. The MIC [10] was 0.5 µg/mL (≈ 0.275 µM), the MIC (Entercoccus faecium 180) was 0.5 µg/mL (≈ 0.275 µM) and the MIC (Entercoccus faecium 2041) was ≤ 0.06 µg/mL. It also gave an MIC [20] of 0.5 µg/mL (≈ 0.275 µM), an MIC [13] of 0.5 µg/mL (≈ 0.275 µM) and an MIC [14] of 1 µg/mL (≈ 0.55 µM). The MIC [15] was ≤ 0.06 µg/mL, the ED50 (Stapylococcus aureus) was 0.16 mg/kg/2 and the ED50 (Streptococcus pyogenes) was 0.057 mg/kg/2. The ED50 (Streptococcus pneumoniae) was 0.036 mg/kg/2, the “mean geometric MIC, Vancomycin Resistant Strains” value [16] was 0.84 µg/mL and the “mean geometric MIC, Vancomycin Sensitive Strains” value [17] was 0.22 µg/mL. The MIC (Pediococcus acidilacti) was 87 µg/mL (≈ 47.8 µM), the MIC (Pediococcus pentosaceus) was 91 µg/mL (≈ 50 µM) and the MIC [21] was 76 µg/mL (≈ 41.8 µM). The MIC [18] was > 128 µg/mL and the MIC (Leuconostoc citreum) was > 128 µg/mL.
